# Laboratory results published in ChEMBL document CHEMBL5131475, “Metallo-β-lactamases inhibitor fisetin attenuates meropenem resistance in NDM-1-producing Escherichia coli” (Eur J Med Chem, 2022).
# Calls of active or inactive are those of the source. No cut-off for these calls is given here.
# Key:
# [1] = test system: Escherichia coli; experiment: Synergistic antibacterial activity against NDM-1 positive MCR1 carrying Escherichia coli ZJ487 isolates assessed as fractional Inhibitory concentration index incubated for 18 to 24 hrs in presence of meropenem by CLSI based broth microdilution method; assay type: functional; details: time 18-24 hrs
# [2] = test system: Escherichia coli; experiment: Antibacterial activity against pET28a-NDM-1 positive Escherichia coli BL21(DE3) isolates assessed as florfenicol MIC incubated for 18 to 24 hrs by CLSI based broth microdilution method; assay type: functional; details: time 18-24 hrs
# [3] = test system: Escherichia coli; experiment: Antibacterial activity against NDM-1 positive Escherichia coli ZC-YN3 isolates assessed as florfenicol MIC incubated for 18 to 24 hrs by CLSI based broth microdilution method; assay type: functional; details: time 18-24 hrs
# [4] = test system: Bacteria; experiment: Binding affinity to NDM-1 (unknown origin) assessed as binding free energy by fluorescence quenching method
# [5] = test system: Bacteria; experiment: Inhibition of NDM-1 activity (unknown origin) in presence of zinc ion
# [6] = test system: Escherichia coli; experiment: Synergistic antibacterial activity against NDM-1 positive Escherichia coli ZC-YN3 isolates assessed as fractional Inhibitory concentration index incubated for 18 to 24 hrs in presence of tetracycline by CLSI based broth microdilution method; assay type: functional; details: time 18-24 hrs
# [7] = test system: Escherichia coli; experiment: Antibacterial activity against NDM-1 negative Escherichia coli BL21(DE3) (pET28a) isolates assessed as meropenem MIC incubated for 18 to 24 hrs by CLSI based broth microdilution method; assay type: functional; details: time 18-24 hrs
# [8] = test system: Bacteria; experiment: Binding affinity to NDM-1 V73A mutant (unknown origin) assessed as binding free energy by fluorescence quenching method
# [9] = test system: Escherichia coli; experiment: Synergistic antibacterial activity against NDM-1 positive Escherichia coli ZC-YN3 isolates assessed as fractional Inhibitory concentration index incubated for 18 to 24 hrs in presence of meropenem by CLSI based broth microdilution method; assay type: functional; details: time 18-24 hrs
# [10] = test system: Escherichia coli; experiment: Antibacterial activity against pET28a-NDM-1 positive Escherichia coli BL21(DE3) isolates assessed as colistin MIC incubated for 18 to 24 hrs by CLSI based broth microdilution method; assay type: functional; details: time 18-24 hrs
# [11] = test system: Escherichia coli; experiment: Antibacterial activity against NDM-1 positive Escherichia coli ZC-YN3 isolates assessed as ciprofloxacin MIC incubated for 18 to 24 hrs by CLSI based broth microdilution method; assay type: functional; details: time 18-24 hrs
# [12] = test system: Escherichia coli; experiment: Synergistic antibacterial activity against pET28a NDM-1 positive Escherichia coli BL21(DE3) isolates assessed as fractional Inhibitory concentration index incubated for 18 to 24 hrs in presence of kanamycin by CLSI based broth microdilution method; assay type: functional; details: time 18-24 hrs
# [13] = test system: Escherichia coli; experiment: Antibacterial activity against NDM-1 positive Escherichia coli ZC-YN3 isolates assessed as lincomycin MIC incubated for 18 to 24 hrs by CLSI based broth microdilution method; assay type: functional; details: time 18-24 hrs
# [14] = test system: Escherichia coli; experiment: Synergistic antibacterial activity against NDM-1 positive Escherichia coli ZC-YN3 isolates assessed as fractional Inhibitory concentration index incubated for 18 to 24 hrs in presence of colistin by CLSI based broth microdilution method; assay type: functional; details: time 18-24 hrs
# [15] = test system: Escherichia coli; experiment: Antibacterial activity against pET28a-NDM-1 positive Escherichia coli BL21(DE3) isolates assessed as ciprofloxacin MIC incubated for 18 to 24 hrs by CLSI based broth microdilution method; assay type: functional; details: time 18-24 hrs
# [16] = test system: Escherichia coli; experiment: Synergistic antibacterial activity against pET28a NDM-1 positive Escherichia coli BL21(DE3) isolates assessed as fractional Inhibitory concentration index incubated for 18 to 24 hrs in presence of florfenicol by CLSI based broth microdilution method; assay type: functional; details: time 18-24 hrs
# [17] = test system: Bacteria
# Description: Binding affinity to NDM-1 M248A mutant (unknown origin) assessed as binding constant by fluorescence quenching method
# [18] = test system: Escherichia coli; experiment: Synergistic antibacterial activity against NDM-1 positive Escherichia coli ZC-YN3 isolates assessed as fractional Inhibitory concentration index incubated for 18 to 24 hrs in presence of doxycycline by CLSI based broth microdilution method; assay type: functional; details: time 18-24 hrs
# [19] = test system: Escherichia coli; experiment: Antibacterial activity against NDM-1 positive Escherichia coli ZC-YN3 isolates assessed as tetracycline MIC incubated for 18 to 24 hrs by CLSI based broth microdilution method; assay type: functional; details: time 18-24 hrs
# [20] = test system: Bacteria; remark: listed apart in the source
# Description: Binding affinity to NDM-1 H250A mutant (unknown origin) assessed as binding constant by fluorescence quenching method
# [21] = test system: Escherichia coli; experiment: Synergistic antibacterial activity against pET28a NDM-1 positive Escherichia coli BL21(DE3) isolates assessed as fractional Inhibitory concentration index incubated for 18 to 24 hrs in presence of imipenem by CLSI based broth microdilution method; assay type: functional; details: time 18-24 hrs
# [22] = test system: Escherichia coli; experiment: Antibacterial activity against pET28a-NDM-1 positive Escherichia coli BL21(DE3) isolates assessed as spectinomycin MIC incubated for 18 to 24 hrs by CLSI based broth microdilution method; assay type: functional; details: time 18-24 hrs
# [23] = test system: Escherichia coli; experiment: Synergistic antibacterial activity against pET28a NDM-1 positive Escherichia coli BL21(DE3) isolates assessed as fractional Inhibitory concentration index incubated for 18 to 24 hrs in presence of vancomycin by CLSI based broth microdilution method; assay type: functional; details: time 18-24 hrs
# [24] = test system: Escherichia coli; experiment: Antibacterial activity against pET28a-NDM-1 positive Escherichia coli BL21(DE3) isolates assessed as rifampicin MIC incubated for 18 to 24 hrs by CLSI based broth microdilution method; assay type: functional; details: time 18-24 hrs
# [25] = test system: Escherichia coli; experiment: Synergistic antibacterial activity against pET28a NDM-1 positive Escherichia coli BL21(DE3) isolates assessed as fractional Inhibitory concentration index incubated for 18 to 24 hrs in presence of meropenem by CLSI based broth microdilution method; assay type: functional; details: time 18-24 hrs
# [26] = test system: Escherichia coli; experiment: Antibacterial activity against NDM-1 positive Escherichia coli ZC-YN3 isolates assessed as ampicillin MIC incubated for 18 to 24 hrs by CLSI based broth microdilution method; assay type: functional; details: time 18-24 hrs
# [27] = test system: Escherichia coli; experiment: Antibacterial activity against pET28a-NDM-1 positive Escherichia coli BL21(DE3) isolates assessed as imipenem MIC incubated for 18 to 24 hrs by CLSI based broth microdilution method; assay type: functional; details: time 18-24 hrs
# [28] = test system: Mus musculus; experiment: Antibacterial activity in BALB/c mouse infected with NDM-1 positive Escherichia coli ZJ487 assessed as mouse death rate at 50 mg/kg, sc administered every 12 hrs and measured after 96 hrs post infection; assay type: functional
# [29] = test system: Escherichia coli; experiment: Synergistic antibacterial activity against NDM-1 positive Escherichia coli ZC-YN3 isolates assessed as fractional Inhibitory concentration index incubated for 18 to 24 hrs in presence of streptomycin by CLSI based broth microdilution method; assay type: functional; details: time 18-24 hrs
# [30] = Inhibition of metallo-beta-lactamase VIM-1 (unknown origin) using nitrocefin as substrate preincubated for 15 min followed by substrate addition and measured after 15 min by microplate reader assay; set-up: species or system Bacteria
# [31] = test system: Escherichia coli; experiment: Synergistic antibacterial activity against pET28a NDM-1 positive Escherichia coli BL21(DE3) isolates assessed as fractional Inhibitory concentration index incubated for 18 to 24 hrs in presence of ciprofloxacin by CLSI based broth microdilution method; assay type: functional; details: time 18-24 hrs
# [32] = test system: Escherichia coli; experiment: Antibacterial activity against pET28a-NDM-1 positive Escherichia coli BL21(DE3) isolates assessed as kanamycin MIC incubated for 18 to 24 hrs by CLSI based broth microdilution method; assay type: functional; details: time 18-24 hrs
# [33] = test system: Escherichia coli; experiment: Antibacterial activity against NDM-1 positive Escherichia coli ZC-YN3 isolates assessed as imipenem MIC incubated for 18 to 24 hrs by CLSI based broth microdilution method; assay type: functional; details: time 18-24 hrs
# [34] = test system: Escherichia coli; experiment: Antibacterial activity against NDM-1 positive Escherichia coli ZC-YN3 isolates assessed as colistin MIC incubated for 18 to 24 hrs by CLSI based broth microdilution method; assay type: functional; details: time 18-24 hrs
# [35] = test system: Escherichia coli; experiment: Bactericidal activity against pET28a-NDM-1 producing Escherichia coli BL21(DE3) at 32 ug/ml measured within 3 hrs in presence of meropenem by time kill curve assay; assay type: functional, organism-based; details: dose 32.0 µg/ml
smiles,measurement,setting,value
O=c1c(O)c(-c2ccc(O)c(O)c2)oc2cc(O)ccc12 [FISETIN],fractional inhibitory concentration index (FICI),[1],0.38
same,MIC,[2],683 µg/mL
same,MIC,[3],341 µg/mL
same,Activity,[4],-25 kcal/mol
same,inhibition,[5],Active
same,fractional inhibitory concentration index (FICI),[6],1.13
same,MIC,[7],0.01 µg/mL
same,Activity,[8],-18.7 kcal/mol
same,fractional inhibitory concentration index (FICI),[9],0.31
same,MIC,[10],1.67 µg/mL
same,MIC,[11],6.67 µg/mL
same,fractional inhibitory concentration index (FICI),[12],1.13
same,MIC,[13],1020 µg/mL
same,fractional inhibitory concentration index (FICI),[14],1.13
same,MIC,[15],341 µg/mL
same,fractional inhibitory concentration index (FICI),[16],0.79
same,Ka,[17],7.39 10^5L/mol
same,fractional inhibitory concentration index (FICI),[18],0.96
same,MIC,[19],128 µg/mL
same,Ka,[20],6.95 10^5L/mol
same,fractional inhibitory concentration index (FICI),[21],0.46
same,MIC,[22],512 µg/mL
same,fractional inhibitory concentration index (FICI),[23],1.13
same,MIC,[24],853 µg/mL
same,fractional inhibitory concentration index (FICI),[25],0.25
same,MIC,[26],853 µg/mL
same,MIC,[27],9.33 µg/mL
same,Activity,[28],90%
same,fractional inhibitory concentration index (FICI),[29],1.13
same,IC50,[30],11.37 µg/mL
same,fractional inhibitory concentration index (FICI),[31],0.96
same,MIC,[32],512 µg/mL
same,MIC,[33],6.67 µg/mL
same,MIC,[34],1.33 µg/mL
same,Activity,[35],Active
